Where two headings read alike, the source gives them in different places. Where a SMILES comes first, the peptide text is derived from it. [ ]: non-standard residue; d: D form. The star is where a group is joined. Palmitoyl = CCCCCCCCCCCCCCCC(=O)*; hPhe = N[C@@H](CCc1ccccc1)C(=O)O; β3hK = NCCCC[C@H](N)CC(=O)O
What was measured:
[1] = target: T1, DENV protease (Dengue virus type 2, UniProt P29990); test: biochemical; conditions: read-out: inhibition of DENV
T1 construct: The virus-encoded dengue protease comprises the amino-terminal 180 amino acids of NS3 (NS3pro) of the polyprotein
Method in brief: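 DENV protease (100 nM) was pre-incubated 15 min with inhibitors in 50 mM Tris-HCl pH 9.0, 10% ethylene glycol, 0.0016% Brij 58. FRET substrate (50 μM final) started the reaction, monitored 15 min as RFU/s slope. IC50 came from triplicate means versus concentration.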

[2] = target: T2, ZIKA protease (Zika virus, UniProt Q32ZE1); test: biochemical; conditions: for inhibition at 50 µM / inhibition at 1 µM: read-out: inhibition of ZIKV
T2 construct: a trypsin-like serine protease domain in the N-terminal region of the flaviviral NS3 proteins
Experimental: (§1) By catalytic activity of the protease, the cleaved substrate results in increased fluorescence that can be monitored using a BMG Labtech Fluostar OPTIMA Microtiter fluorescence plate reader (excitation wavelength of 320 nm and a monitored emission wavelength of 405 nm). Dilutions were made starting from 10 mM stock solutions in DMSO and final concentrations were measured in triplicates. The inhibitors were preincubated for 15 min with DENV protease (100 nM) in the assay buffer (50 mM Tris-HCl pH 9.0, ethylene glycol (10% v/v), and 0.0016% Brij 58). The enzymatic reaction was initiated by the addition of the FRET substrate (final concentration 50 μM) to obtain a final assay volume of 100 μL per well. The enzymatic activity was monitored for 15 min and determined as a slope of relative fluorescence units per second (RFU/s) for each concentration. The mean of the triplicates were plotted against the corresponding concentration in CDDVault to determine the IC50-values. Analogous procedures were used to determine the inhibitory potency on WNV (Kühl et al., J. Med. Chem. 2020, 63 (15): 8179-8197) and ZIKA protease (Nitsche et al., ACS Med. Chem. Lett. 2019 Feb. 14; 10 (2): 168-174). For selectivity screening of active candidates, similar biochemical assays with human serine proteases trypsin (Weigel et al., J. Med. Chem. 2015, 58 (19), 7719-7733.) and/or thrombin (Nitsche et al., J. Med. Chem. 2013, 56 (21), 8389-8403) were used.

[3] = tested on: West Nile virus
[4] = tested on: ZIKV
[5] = target: T3, WNV protease (West Nile virus, UniProt P06935); test: WNV protease assay (analogous procedure); format: biochemical
T3 construct: a trypsin-like serine protease domain in the N-terminal region of the flaviviral NS3 proteins
Experimental: as §1

[6] = target: human Thrombin (Homo sapiens, UniProt P00734); test: Selectivity screening, human serine protease thrombin; format: biochemical; conditions: read-out: inhibition of human Thrombin
Experimental: as §1

[7] = target: human Trypsin (Homo sapiens, UniProt P07477); test: Selectivity screening, human serine protease trypsin; format: biochemical; conditions: read-out: inhibition of human Trypsin
Experimental: as §1

[8] = target: T3, WNV protease; test: WNV protease assay (analogous procedure); format: biochemical; conditions: read-out: IC50 for WNNV

T2 sequence (Q32ZE1 1499-1676): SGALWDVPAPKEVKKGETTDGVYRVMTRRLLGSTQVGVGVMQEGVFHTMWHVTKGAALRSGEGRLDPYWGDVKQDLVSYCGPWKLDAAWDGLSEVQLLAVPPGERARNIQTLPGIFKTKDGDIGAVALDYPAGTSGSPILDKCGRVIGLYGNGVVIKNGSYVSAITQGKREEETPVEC
T2 sequence (Q32ZE1 1421-1460): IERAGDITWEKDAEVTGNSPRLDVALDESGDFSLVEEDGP
T3 sequence (P06935 1424-1463): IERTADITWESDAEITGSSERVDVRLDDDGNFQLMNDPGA
T3 sequence (P06935 1502-1679): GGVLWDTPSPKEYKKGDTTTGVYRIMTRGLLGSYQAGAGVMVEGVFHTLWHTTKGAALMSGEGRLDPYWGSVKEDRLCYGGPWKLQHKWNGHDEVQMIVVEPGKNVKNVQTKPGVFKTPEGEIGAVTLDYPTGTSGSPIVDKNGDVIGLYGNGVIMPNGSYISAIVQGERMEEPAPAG
T1 sequence (P29990 1398-1437): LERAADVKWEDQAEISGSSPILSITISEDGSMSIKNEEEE
T1 sequence (P29990 1476-1653): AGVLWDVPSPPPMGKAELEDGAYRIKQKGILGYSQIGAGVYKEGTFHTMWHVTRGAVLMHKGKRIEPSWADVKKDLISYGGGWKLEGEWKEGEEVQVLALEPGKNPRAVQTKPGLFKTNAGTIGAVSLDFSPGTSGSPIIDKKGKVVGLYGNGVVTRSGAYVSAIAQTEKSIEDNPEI

Row | SMILES | inhibition at 50 µM [1] | IC50 [2] | inhibition at 50 µM ([2]; at 50 μM) | EC50 [3] | EC50 [4] | inhibition at 1 µM [1] | inhibition at 50 µM [5] | inhibition at 1 µM [2] | inhibition at 50 µM [2] | inhibition at 5 µM [6] | inhibition at 5 µM [7] | inhibition at 25 µM [7] | IC50 [8] | inhibition at 1 µM ([1]; at 1 μM) | inhibition at 1 µM ([2]; at 1 μM) | inhibition at 5 µM ([6]; at 5 μM) | inhibition at 5 µM ([7]; at 5 μM) | inhibition at 25 µM ([7]; at 25 μM) | inhibition at 1 µM ([5]; at 1 μM, read-out: inhibition of WNNV)
1 | CCCCCCCCCCCCCCCC(=O)N[C@@H](CCCNC(=N)N)C(=O)N[C@@H](CCC(N)=O)C(=O)N[C@@H](CCc1ccccc1)C(N)=O [compound 53] (Palmitoyl-Arg-Gln-[hPhe]-NH2) | ≥ 25% | ≤ 25 µM | ≥ 65% | ≤ 25 µM | ≤ 10 µM | – | – | – | – | – | – | – | – | – | – | – | – | – | –
2 | CCCCCCCCCCCCCCCC(=O)N[C@@H](CCCCN)C(=O)N[C@@H](C)C(=O)N[C@@H](C)C(=O)N[C@H](CCCCN)C(=O)c1ccccc1 [compound 136] | ≥ 25% | ≤ 25 µM | – | ≤ 25 µM | – | ≥ 20% | ≥ 25% | ≥ 10% | ≥ 65% | < 5% | < 10% | < 20% | ≤ 40 µM | – | – | – | – | – | –
3 | CCCCCCCCCCCCCCCC(=O)N[C@@H](CCCNC(=N)N)C(=O)N[C@@H](CCC(N)=O)C(=O)N[C@H](Cc1ccccc1)C(N)=O [compound 49] (Palmitoyl-Arg-Gln-[dF]-NH2) | ≥ 25% | ≤ 25 µM | ≥ 65% | – | ≤ 10 µM | – | – | – | – | – | – | – | – | ≥ 20% | ≥ 10% | – | – | – | –
4 | CCCCCCCCCCCCCCCC(=O)N[C@@H](CCCNC(=N)N)C(=O)N[C@@H](CC(N)=O)C(=O)N[C@@H](Cc1ccccc1)C(N)=O [compound 50] (Palmitoyl-Arg-Asn-Phe-NH2) | ≥ 25% | ≤ 25 µM | ≥ 65% | ≤ 25 µM | ≤ 10 µM | – | – | – | – | – | – | – | – | ≥ 20% | ≥ 10% | – | – | – | –
5 | CCCCCCCCCCCCCCCC(=O)N[C@@H](CCCCN)C(=O)N[C@@H](C)C(=O)N[C@@H](C)C(=O)N[C@@H](CCCCN)C(=O)C(N)=O [compound 9] | ≥ 25% | ≤ 25 µM | ≥ 65% | ≤ 25 µM | – | – | ≥ 25% | – | – | – | – | – | ≤ 40 µM | – | ≥ 10% | < 5% | – | – | –
6 | CCCCCCCCCCCCCCCC(=O)N[C@@H](CCCCN)C(=O)N1CCC[C@H]1C(=O)N[C@@H](Cc1cnc[nH]1)C(=O)N[C@@H](CCc1ccccc1)C(N)=O [compound 11] (Palmitoyl-KPH[hPhe]-NH2) | ≥ 25% | ≤ 25 µM | ≥ 65% | – | – | – | ≥ 25% | – | – | – | – | – | ≤ 40 µM | – | ≥ 10% | < 5% | < 10% | < 20% | –
7 | CCCCCCCCCCCCCCCC(=O)N[C@H](C)C(=O)N1C[C@H](Oc2ccncc2)C[C@H]1C(=O)N[C@H](C)C(=O)N[C@H](CCCCN)C(N)=O [compound 8] | ≥ 25% | ≤ 25 µM | ≥ 65% | – | – | – | ≥ 25% | – | – | – | – | – | ≤ 40 µM | – | – | < 5% | < 10% | < 20% | –
8 | CCCCCCCCCCCCCCCC(=O)N[C@@H](CCCCN)C(=O)N[C@@H](C)C(=O)N[C@@H](CCCCN)C(C)=O [compound 175] | ≥ 25% | ≤ 25 µM | ≥ 65% | – | – | – | ≥ 25% | – | – | – | – | – | ≤ 40 µM | – | – | < 5% | < 10% | < 20% | –
9 | CCCCCCCCCCCCCCCC(=O)N[C@@H](C)C(=O)N[C@@H](CCCNC(=N)N)C(=O)N[C@@H](CCC(N)=O)C(=O)N[C@@H](Cc1ccccc1)C(N)=O [compound 54] (Palmitoyl-ARQF-NH2) | ≥ 25% | ≤ 25 µM | ≥ 65% | ≤ 25 µM | ≤ 10 µM | – | – | – | – | – | – | – | – | – | ≥ 10% | – | – | – | –
10 | CCCCCCCCCCCCCCCC(=O)N[C@@H](CCCCN)CC(=O)N1CCC[C@H]1C(=O)N[C@@H](C)C(=O)N[C@@H](Cc1ccccc1)C(N)=O [compound 116] (Palmitoyl-[β3hK]PAF-NH2) | ≥ 25% | ≤ 25 µM | ≥ 65% | – | – | – | ≥ 25% | – | – | – | – | – | ≤ 40 µM | – | ≥ 10% | < 5% | < 10% | < 20% | –
11 | CCCCCCCCCCCCCCCC(=O)N[C@@H](CCCCN)C(=O)N1CCC[C@H]1C(=O)N[C@@H](C)C(=O)N[C@@H](CCCCN)C(=O)C(N)=O [compound 10] | ≥ 25% | ≤ 25 µM | ≥ 65% | ≤ 25 µM | – | – | ≥ 25% | – | – | – | – | – | ≤ 40 µM | – | – | < 5% | < 10% | – | –
12 | CCCCCCCCCCCCCCCC(=O)N[C@@H](CCCCN)C(=O)N1CCC[C@H]1C(=O)N[C@@H](C)C(=O)N[C@@H](C(N)=O)c1ccc(OCc2ccccc2)cc1 [compound 129] | ≥ 25% | ≤ 25 µM | – | – | – | ≥ 20% | ≥ 25% | ≥ 10% | ≥ 65% | < 5% | < 10% | < 20% | ≤ 40 µM | – | – | – | – | – | –
13 | CCCCCCCCCCCCCCCC(=O)N[C@@H](CCCCN)C(=O)N[C@@H](C)C(=O)N[C@@H](C)C(=O)N[C@@H](CCCCN)C(=O)c1ccccc1 [compound 137] | ≥ 25% | ≤ 25 µM | – | – | – | ≥ 20% | ≥ 25% | ≥ 10% | ≥ 65% | < 5% | < 10% | < 20% | ≤ 40 µM | – | – | – | – | – | ≥ 10%
14 | CCCCCCCCCCCCCCCC(=O)N[C@@H](CCCCN)C(=O)N[C@@H](C)C(=O)N[C@@H](C)C(=O)N[C@@H](Cc1cnc[nH]1)C(N)=O [compound 168] (Palmitoyl-KAAH-NH2) | ≥ 25% | ≤ 25 µM | ≥ 65% | – | – | – | ≥ 25% | – | – | – | – | – | ≤ 40 µM | – | ≥ 10% | < 5% | < 10% | < 20% | –
15 | CCCCCCCCCCCCCCCC(=O)N[C@@H](CCCCN)C(=O)N1CCC[C@H]1C(=O)N[C@@H](C)C(=O)N[C@@H](CCc1ccccc1)C(=O)C(N)=O [compound 6] | ≥ 25% | ≤ 25 µM | – | – | – | – | ≥ 25% | – | ≥ 65% | < 5% | < 10% | < 20% | ≤ 40 µM | – | – | – | – | – | –

— patent US20250059231A1, “Protease inhibitors” (priority 2021, published 2025)
